According to US5070210A, “Novel ketenimines as intermediates for insecticides” (ICI Americas Inc., priority 1990, dated 1991):

Assays:
Assay type in all cases: in vivo
[1] = system: Tobacco Budworm [Heliothis virescens (Fabricius)] eggs; assay: Tobacco budworm egg test; details: 2-day old eggs, percent in solution
In short: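 Paper towel patches bearing 2-day old eggs were dipped in acetone solutions of compound, then set in petri dishes over larval rearing medium at 78° F. Mortality was scored once all control eggs had hatched and larvae were feeding. LC50, from dosage-mortality curves, is given as percent compound in solution.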

[2] = system: Housefly [Musca domestica]; assay: Housefly insecticidal test; details: μg per 25 female flies; mortality after 48 hours
In short: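 LC50, as μg compound per 25 female flies, comes from dosage-mortality curves with doses from 100 μg downward. Residues were made by evaporating acetone plus 0.01% peanut oil in dishes, onto which 1-2-day-old females were caged; deaths were counted after 48 hours.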

[3] = system: Tobacco Budworm [Heliothis virescens (Fabricius)] larvae; assay: Tobacco budworm contact test; details: second-instar larvae, percent in solution, 5 days
Description: The compounds in Tables 1 and 2 above were tested for insecticidal activity using the following testing procedures. LC50 values, based on the results of these tests and calculated according to dosage-mortality curves, are expressed in Table 3.
Tobacco Budworm [Heliothis virescens (Fabricius)]:
(a) Contact: Test compounds were diluted in a 50-50 acetone-water solution. Cotton (Gossypium sp.) cotyledons were immersed in the test solutions for 2-3 seconds and placed on a wire screen to dry. The dried leaves were placed in petri dishes containing a moistened piece of filter paper and infested with 5 second-instar tobacco budworm larvae. The dishes were placed in a high humidity chamber for 5 days, and percent mortality of the larvae recorded. Test concentrations ranged from 0.1% downward. The LC-50 values are expressed below in Table 3 under the heading "TBW-C" in terms of percent of the test compound in the solution.

[4] = system: Aster Leafhopper [Macrosteles fascifrens (Stal)]; assay: Aster leafhopper insecticidal test; details: adults/nymphs, percent in solution; 48 hours
In short: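 LC50 values, given as percent of test compound in the dip solution, were derived from dosage-mortality curves over concentrations from 0.05% downward. Mortality was counted 48 hours after ten leafhopper adults/nymphs were enclosed on treated seedlings. The seedlings were oats, about 10 cm tall, briefly dipped in 50-50 acetone-water.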

[5] = system: Cabbage Looper [Trichoplusia ni (Hubner)]; assay: Cabbage looper insecticidal test; details: second-instar larvae, percent in solution; 3-5 days
In short: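 Compounds in 50-50 acetone-water were applied by dipping squash cotyledons (about 1×1.5 in) for 2-3 s; dried leaves went into petri dishes on moist filter paper with 5 second-instar larvae under high humidity. Mortality was scored after 3-5 days; LC50 from dosage-mortality curves, as percent compound in solution.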

[6] = system: Maize weevil [Sitophilus Zeamais (Motschulsky)]; assay: Maize weevil insecticidal test; details: adult weevils, percent in solution; 48 hours
In short: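 LC50, in percent of compound in solution, was derived from dosage-mortality curves after 48 h at about 25 °C. Ten adult weevils per container fed on four corn seeds briefly immersed in acetone:water (50:50) solutions of up to 0.01% and dried.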

SMILES | LC50, TBW, E (TBW-E) [1] [%] | LC50, HF [2] [µg] | LC50, TBW, C (TBW-C) [3] [%] | LC50, LH [4] [%] | LC50, CL [5] [%] | LC50, MW [6] [%]
Fc1ccc(N=C(OCc2cccc(Oc3ccccc3)c2)C(Cl)Cl)cc1 [Compound 44] | 0.06 | 3 | < 0.1 |  |  | 
CC(C)C(=Nc1ccc(F)c(Cl)c1)OCc1ccc(OCc2ccccc2)cc1 [Compound 475] | > 0.1 | > 100 |  | > 0.05 | 0.008 | > 0.01
C=CCOc1cccc(COC(=Nc2ccc(F)c(Cl)c2)C(C)C)c1 [Compound 479] | > 0.1 | 66 |  | > 0.05 | 0.013 | > 0.01
CC(C)C(=Nc1ccc(F)c(Cl)c1)OCc1cccc(OCc2ccc(F)cc2)c1 [Compound 490] | > 0.1 | > 100 |  | > 0.05 | 0.0045 | > 0.01
CC(C)C(=Nc1ccc(F)c(Cl)c1)OCc1cccc(Oc2ccc(Br)cc2)n1 [Compound 492] | 0.015 | 15 |  | > 0.05 | 0.00028 | > 0.01
CC(C)C(=Nc1ccc(F)c(Cl)c1)OCc1cccc(Nc2ccc(F)cc2)c1 [Compound 512] | > 0.1 | 35 |  | > 0.05 | 0.003 | > 0.01
CC(C)C(=Nc1cccc(C(F)(F)F)c1)OCc1cccc(Nc2ccc(F)cc2)c1 [Compound 513] | > 0.1 | 81 |  | > 0.05 | 0.007 | > 0.01
CC(C)C(=Nc1ccc(Cl)c(Cl)c1)OCc1cccc(Nc2ccc(F)cc2)c1 [Compound 514] | > 0.1 | > 100 |  | > 0.05 | 0.008 | > 0.01
CC(C)C(=Nc1ccc2c(c1)OCO2)OCc1cc(Oc2ccc(F)cc2)ccn1 [Compound 515] | > 0.1 | 28 |  | > 0.05 | 0.0015 | > 0.01
CC(C)C(=Nc1ccc(F)c(Cl)c1)OCc1cc(Oc2ccc(Cl)cc2)ccn1 [Compound 516] | > 0.1 | > 100 |  | > 0.05 | 0.008 | > 0.01
CC(C)C(=Nc1cccc(C(F)(F)F)c1)OCc1ccnc(Oc2ccc(Cl)cc2)c1 [Compound 517] | 0.04 | 80 |  | > 0.05 | 0.0008 | > 0.01
CC(C)C(=Nc1cccc(C(F)(F)F)c1)OCc1cccc(Oc2ccc(Cl)cn2)c1 [Compound 518] | > 0.1 | > 100 |  | > 0.05 | 0.00075 | > 0.01
C#CC(OC(=Nc1cccc(C(F)(F)F)c1)C(C)C)c1cccc(Oc2ccccc2)c1 (centres unmarked) [Compound 519] | > 0.1 | 60 |  | > 0.05 | 0.0037 | > 0.01
CCC(=Nc1ccc(F)c(F)c1)OCc1coc(Cc2ccccc2)c1 [Compound 524] | > 0.1 | 5.2 |  | > 0.05 | > 0.1 | > 0.01
CC(C)(C)C(=Nc1ccc(F)c(F)c1)OCc1coc(Cc2ccccc2)c1 [Compound 525] | > 0.1 | > 100 |  | > 0.05 | < 0.1 | > 0.01
CC(=Nc1ccc(F)c(F)c1)OCc1coc(Cc2ccccc2)c1 [Compound 526] | > 0.1 | 8.3 |  | > 0.05 | > 0.1 | > 0.01

SMILES | LC50, TBW, E (TBW-E) [1] [%] | LC50, HF [2] [µg] | LC50, TBW, C (TBW-C) [3] [%] | LC50, LH [4] [%] | LC50, CL [5] [%] | LC50, MW [6] [%]
CC(C)C(=Nc1ccc(F)c(Cl)c1)OCc1cccc(Oc2ccc(Cl)cn2)c1 [Compound 527] | 0.035 | 47 |  | > 0.05 | 0.00065 | > 0.01
CC(C)C(=Nc1ccc2c(c1)OCO2)OCc1cccc(Oc2ccc(Cl)cn2)c1 [Compound 532] | > 0.1 | > 100 |  | > 0.05 | < 0.1 | > 0.01
C#CC(OC(=Nc1ccc(F)c(Cl)c1)C(C)C)c1cccc(Oc2ccccc2)c1 (centres unmarked) [Compound 533, N-(3-chloro-4-fluorophenyl)-O-[1-(3-phenoxyphenyl)-2-propyn-1-yl]isobutyrimidate] | > 0.1 | 60 |  | > 0.05 | > 0.1 | > 0.01
CC(C)C(=Nc1ccc(F)c(Cl)c1)OCC#CCOc1ccccc1 [Compound 534] | > 0.1 | > 100 |  | > 0.05 | < 0.1 | > 0.01
CC(C)C(=Nc1ccc(C(F)(F)F)cc1)OCc1cccc(Cc2ccccc2)c1 [Compound 535] | > 0.1 | 41 |  | > 0.05 | > 0.1 | > 0.01
Cc1c(COC(=Nc2ccc(C(C)(C)C)cc2)C(C)C)cccc1-c1ccccc1 [Compound 536] | > 0.1 | > 100 |  | > 0.05 | < 0.1 | > 0.01
CC(C)C(=Nc1ccc(F)c(Cl)c1)OCc1cccc(Cc2ccccc2)c1 [Compound 537] | > 0.1 | 20 |  | > 0.05 | > 0.1 | > 0.01
CC(C)C(=Nc1ccc(OC(F)(F)F)cc1)OCc1cccc(Cc2ccccc2)c1 [Compound 538] | > 0.1 | 75 |  | > 0.05 | > 0.1 | > 0.01
CC(C)C(=Nc1ccc([N+](=O)[O-])cc1)OCc1coc(Cc2ccccc2)c1 [Compound 539] | > 0.1 | 22 |  | > 0.05 | > 0.1 | > 0.01
CC(C)C(=Nc1ccc2c(c1)OCO2)OCc1ccnc(Oc2ccccc2)c1 [Compound 540] | > 0.1 | > 100 |  | > 0.05 | < 0.1 | > 0.01
COCc1c(F)c(F)c(COC(=Nc2ccc(C(C)(C)C)cc2)C(C)C)c(F)c1F [Compound 544] | > 0.1 | > 100 |  | > 0.05 | > 0.1 | > 0.01
Cc1cccc(N=C(OCc2cccc(Oc3ccc(Cl)cc3)n2)C(C)C)c1 [Compound 545] | > 0.1 | < 100 |  | > 0.05 | > 0.1 | > 0.01
C#CCc1c(F)c(F)c(COC(=Nc2cccc(C(F)(F)F)c2)C(C)C)c(F)c1F [Compound 546] | > 0.1 | < 100 |  | < 0.05 | 0.0001 | 0.0032
C#CCc1c(F)c(F)c(COC(=Nc2ccc3c(c2)OCO3)C(C)C)c(F)c1F [Compound 547] | 0.05 | < 100 |  | < 0.05 | 0.0005 | > 0.01
CC(C)C(=Nc1cccc(C(F)(F)F)c1)OCC#CCOc1ccccc1 [Compound 548] | > 0.1 | > 100 |  | > 0.05 | < 0.1 | > 0.01
CC(C)C(=Nc1ccc(F)c(Cl)c1)OCc1cccc(Oc2ccccn2)c1 [Compound 549] | > 0.1 | < 100 |  | > 0.05 | > 0.1 | > 0.01
